These results are taken from patent US8889411B2, “Modulation of stem and progenitor cell differentiation, assays, and uses thereof” (Anthrogenesis Corporation, priority 2002, dated 2014).

Assay [1] has as its system adult SJL/L mice with bone marrow ablation by lethal irradiation. Nature of the assay: Transplantation of ACTIMID-pretreated nucleated cells into lethally irradiated mice. The class given is in vivo, mouse. The note with it: for % Starting Body Weight at 50 days: irradiated mice. The procedure:
Placental nucleated cells (PLNC), umbilical cord blood nucleated cells (UCBNC) and bone marrow cells (BMNC) were obtained from human donors. PLNC and UCBNC were obtained from placenta and umbilical cord using methods described in Section 5.4 above.
The cells were pretreated by incubation in DMEM supplemented with 2% human CB serum with 10 µg/ml ACTIMID™ for 24 hours. Cells were then washed, resuspended in autologous plasma, and administered intravenously to recipient adult SJL/L mice (Jackson Laboratories) that had bone marrow ablation produced by lethal irradiation (900cGy) according to standard methods. Such irradiation is better than 90% lethal by 50 days post-irradiation (Ende et al., 2001, Life Sciences 69(13):1531-1539; Chen and Ende, 2000, J. Med. 31: 21-30; Ende et al., 2000, Life Sci. 67(1):53-9; Ende and Chen, 2000, Am. J. Clin. Pathol. 114: 89).

The subject of assay [2] is allogenic CD3+ T cells stimulated by CD34+-derived DC cells. Kind of assay: T cell proliferation assay (Mixed Leucocyte Reaction). Type of assay: cell-based, human. The following applies: compared to DMSO control. The procedure:
T cell proliferation assay: After 13 days of culture, CD34^+-derived DC cells were collected, and after treatment with mitomycin C (50 μg/ml, Sigma), used as stimulators cells for allogenic adult CD3^+ T cells purified from peripheral blood mononuclear cells (PBMCs) from healthy volunteers. CD3^+ T responder cells were used at a concentration of 5×10^4 cells/well. Stimulators cells were added in graded doses to the T cells in black 96-well flat bottom, clear bottom tissue culture plates for chemiluminescence detection. Cultures were performed in RPMI 1640 medium supplemented with 10% heat-inactivated FBS, glutamine and Penicillin-streptomycin. After 6 days of culture, cell proliferation was measured with the BrdU chemiluminescence assay (Roche, Nutley N.J.), following manufacturer instructions. Results are presented as the mean±SD obtained from triplicate cultures.

The subject of assay [3] is Human Cord Blood MNC Cells. Nature of the assay: FACS analysis of cryopreserved and thawed cord blood MNCs after 1 week of culture with cytokines. The following applies: 5 μg in 1.7 μl DMSO, average +/− SD of three wells. Type of assay: cell-based. The procedure:
Cord blood MNCs that had been cryopreserved and thawed using standard methods were isolated by standard Ficoll separation method and cultured in 24 well-plate at 0.5×10^6 cells/ml in 20% FCS-IMDM with cytokines (1L6, KL and G-CSF 10 ng/ml each) in triplicates. The experimental groups were None (cytokines only), DMSO (1.7 μl), ACTIMID™ (5.0 μg in 1.7 μl DMSO), REVIMID™ (5 μg in 1.7 μl DMSO). The cultured cells were harvested and analyzed by FACS staining after 1 week of culture. The data are expressed as an average +/− SD from three independent wells.
(In flow cytometry, cells or beads pass a laser one at a time.)

Assay [4] has as its system Murine Sca+Lin− hematopoietic progenitor cells. Kind of assay: Generation of murine dendritic cells from bone marrow Sca+Lin− progenitors, cell surface phenotype. Type of assay: cell-based, mouse (C57BL/6). An excerpt:
Mouse bone marrow from inbred C57BL/6 mice was obtained from Clonetics. Hematopoietic Sca+Lin− progenitors were enriched using SpinSep murine progenitor enrichment cocktail (StemCell Technologies) and cultured in Iscove's MDM with BIT 95000 (StemCell Technologies) in the presence of murine growth factors SCF, Flt3L, GM-CSF and M-CSF for 9 days, to promote expansion of Sca+ cells and a DC precursor phenotype and then in the presence of GM-CSF and TNF-α for 3 additional days to drive the cells to an immature DC phenotype. Enriched Sca+Lin− cells were cultured in the presence of DMSO (0.1%), ACTIMID™ at 10 μM or all-trans retinoic acid (ATRA) (ICN Biomedicals) at 10 μM from day 0. Compounds were added to cells at day 0 and day 9.
Analysis of Murine cell surface phenotype: Murine cells were processed for double staining (14 min at RT) at day 9 and day 12; using FITC and PE conjugated mAbs. Antibodies used were from BD Pharmingen: Sea (PE), CD11b (FITC), Gr-1 (FITC), CD86 (PE), CD14 (PE), CD80 (PE), I-A^b (PE), CD40 (PE) and CD32.1/16.1 (FITC) from Miltenyi. Fluorescence analysis was performed on a FACScan flow cytometer (Coulter) after acquisition of 10,000 events.

The subject of assay [5] is Cord blood CD34+ hematopoietic progenitor cells. Nature of the assay: Colony forming unit (CFU) generation from cord blood CD34+ cells. The class given is cell-based, human. The note with it: IL-3, G-CSF, kit-ligand, vs DMSO. The procedure:
FIG. 1. Bar graph indicating results of culturing cord blood CD34+ cells in the presence of Thalidomide (THD), ACTIMID™, and REVIMID™ at concentrations of 1 μg/ml and 10 μg/ml. An equal volume of DMSO was used as a negative control. Hematopoietic colonies of burst forming units-erythroid (BFU-E), colony forming units-erythroid (CFU-E), colony forming units-granulocyte macrophage (CFU-GM) and total numbers of colonies (CFU-Total) were scored under the light microscope at day 14 of culture. Y-axis: numbers of colonies. See Section 6.1 for details.
Cord blood CD34+ hematopoietic progenitor cells were plated in 96 well cultivation dishes at a density of 1000 cells per well in IMDM supplemented with 20% fetal calf serum and cytokines (IL-3, G-CSF and kit-ligand (R&D Systems, Inc.) The cells were exposed to Thalidomide (Thal), ACTIMID™ and REVIMID™, or DMSO (a control compound), and allowed to culture for 6 days. […] After culturing, cells were stained and sorted with a fluorescence activated. cell sorter (FACS). 400 μL of stained cells were harvested and diluted to 1.0 ml with 1% fetal calf serum in phosphate buffered saline (PBS). Cells were counted to determine the effect of modulation of stem cell differentiation.

Where [6] appears, read: 10 μM, added at day 0 and day 9.

Structures are written as SMILES.

Consider `Nc1cccc2c1C(=O)N(C1CCC(=O)NC1=O)C2=O` (centres unmarked) [ACTIMID™, 4-(Amino)-2-(2,6-dioxo(3-piperidyl))-isoindoline-1,3-dione], for which the “survival of transplanted PLNC, UCBNC and BMNC” value in assay [1] (ACTIMID pre-treatment of cells) is “increases the survival”. Also, the “# of Animals Dead at 50 days” value in assay [1] (PLNC 5 × 10^6 + ACTIMID pre-treatment (10 g/ml, 24 hours) intravenous, 4 animals irradiated (900cGy)) is reported as 0. Further, in assay [1] (PLNC 5 × 10^6 + ACTIMID pre-treatment intravenous), the “% Starting Body Weight at 50 days” value was 102%. In assay [1] (UCBNC 10 × 10^6 + ACTIMID pre-treatment intravenous, 3 animals irradiated (900cGy)), the “# of Animals Dead at 50 days” value was found to be 0. The “% Starting Body Weight at 50 days” value in assay [1] (UCBNC 10 × 10^6 + ACTIMID pre-treatment intravenous) was determined as 84%. Besides, in assay [2] (compound from day 1 to day 12), the “capacity to stimulate the proliferation of T-cells” value was “reduced capacity”. Further, the “capacity to stimulate the proliferation of T-cells” value in assay [2] (compound from day 6 to day 12) is given as “comparable”. In addition, in assay [3], the “CD34(%)” value is recorded as 3.31 +/− 0.64%, the “CD34+CD38−(%)” value is given as 1.70 +/− 0.22%, the “CXCR4+CD45+(%)” value is recorded as 2.9 +/− 0.5% and the “CXCR4+CD45−(%)” value is on record as 4.27 +/− 0.23%. Moreover, in assay [3], the “Total CD34+ cells” value is on record as 7800 +/− 2600 and the “Total cells (1 × 10^6)” value was 0.223 +/− 0.06 1 × 10^6. Also, the “cell surface marker expression by day 9” value in assay [4] (10 μM from day 0) is recorded as “no significant effect”. Moreover, in assay [4] (setting [6]), the “CD11b expression by day 12” value is “upregulation”; the “CD86 and bright I-A^b expression by day 12” value is “downregulation”. The “expression of CD40 and CD80” value in assay [4] (10 μM, not shown) is “no effects”. In addition, in assay [5], the “generation of erythropoietic colonies (BFU-E and CFU-E)” value is recorded as “suppress”; the “generation of leukocyte and platelet forming colonies (CFU-GM)” value was “augmenting”; the “total colony forming unit (CFU-Total) production” value is recorded as “enhancing”.
